Biological target: T1, PSMA-expressing LNCaP cells (Homo sapiens, UniProt Q04609)
T1 construct: PSMA-expressing LNCaP cells; endogenous in cells; host or cells: LNCaP
Experiment: Binding competition assay against 3H-PSMA-617 on LNCaP cells
Details: LNCaP cells, 10 nM 3H-PSMA-617, 2 h at 37° C., triplicates; for remaining activity at 0.01 µM: competing non-radiolabeled compound 10 nM; for remaining activity at 0.1 µM: competing non-radiolabeled compound 100 nM
Method: Cells were incubated at 37° C. and 5% CO2 over night. […] After addition of the compounds in growth media the cells were swiveled slightly on a shaker mixing for 10 min followed by incubation for 2 h at 37° C., 5% C02. Following the incubation time the supernatant was removed by pipetting and cells were washed twice with ice cold PBS (total of 800 μl). Cells were lysed in 500 μl of 0.3M NaOH (PanReac AppliChem ITW Reagents) by vigorous shaking for 15 min and the cell lysated pipetted into scintillator tubes (S207-[…]® Scintillation Vials 6.5 ml #S207, Simport). In the following the wells were washed with 500 μl PBS and the washing PBS added to the corresponding samples in the sincitallator tubes. To each sample in the scintillator tubes 4 mL of Ultima Gold liquid scintillation cocktail (Sigma-Aldrich #L8286) was added and the samples let stand for at least 30 min. Thereafter radioactivity was counted in a Tri-Carb Liquid Scinzillation Analyzer (Perkin Elmer).

T1 sequence (Q04609 whole entry): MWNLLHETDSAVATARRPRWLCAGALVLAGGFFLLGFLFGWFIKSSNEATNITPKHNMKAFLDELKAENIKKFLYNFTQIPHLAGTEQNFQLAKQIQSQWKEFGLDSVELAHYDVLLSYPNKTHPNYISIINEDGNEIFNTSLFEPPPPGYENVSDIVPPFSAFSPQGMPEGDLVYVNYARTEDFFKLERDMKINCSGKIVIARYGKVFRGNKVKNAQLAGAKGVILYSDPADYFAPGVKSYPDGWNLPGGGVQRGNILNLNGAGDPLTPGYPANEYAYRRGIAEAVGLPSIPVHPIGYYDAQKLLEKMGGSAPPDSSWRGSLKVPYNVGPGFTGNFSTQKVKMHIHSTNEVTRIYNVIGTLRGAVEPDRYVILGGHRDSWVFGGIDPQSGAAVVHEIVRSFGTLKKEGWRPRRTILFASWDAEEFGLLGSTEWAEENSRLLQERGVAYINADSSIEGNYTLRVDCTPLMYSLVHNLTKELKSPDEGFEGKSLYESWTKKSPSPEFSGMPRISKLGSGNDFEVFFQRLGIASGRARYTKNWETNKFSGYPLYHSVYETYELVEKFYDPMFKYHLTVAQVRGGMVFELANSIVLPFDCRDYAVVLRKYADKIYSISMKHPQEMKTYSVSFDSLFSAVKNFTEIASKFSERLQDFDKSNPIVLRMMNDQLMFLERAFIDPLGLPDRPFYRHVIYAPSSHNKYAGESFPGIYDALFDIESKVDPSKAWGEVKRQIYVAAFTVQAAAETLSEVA

Row | SMILES | remaining activity at 0.01 µM | remaining activity at 0.1 µM
1 | NC[C@H]1CC[C@H](C(=O)N[C@@H](Cc2ccc3ccccc3c2Br)C(=O)NCCCC[C@H](NC(=O)N[C@@H](CCC(=O)O)C(=O)O)C(=O)O)CC1 [Example 14-A, (3S,10S,14S)-1-[(1r,4S)-4-(aminomethyl)cyclohexyl]-3-[(1-bromonaphthalen-2-yl)methyl]-1,4,12-trioxo-2,5,11,13-tetraazahexadecane-10,14,16-tricarboxylic acid] | 187% | 129%
2 | NC[C@H]1CC[C@H](C(=O)N[C@@H](Cc2csc3ccccc23)C(=O)NCCCC[C@H](NC(=O)N[C@@H](CCC(=O)O)C(=O)O)C(=O)O)CC1 [Example 43-A, N^6—{N-[(1r,4S)-4-(aminomethyl)cyclohexane-1-carbonyl]-3-(1-benzothiophen-3-yl)-L-alanyl}-N^2-{[(1S)-1,3-dicarboxypropyl]carbamoyl}-L-lysine] | 96% | 82%
3 | NC[C@H]1CC[C@H](C(=O)N[C@@H](CCCNC(=O)c2cnccn2)C(=O)NCCCC[C@H](NC(=O)N[C@@H](CCC(=O)O)C(=O)O)C(=O)O)CC1 [Example 20-A, N^6—{N^2-[(1r,4S)-4-(aminomethyl)cyclohexane-1-carbonyl]-N^5-(pyrazine-2-carbonyl)-L-ornithyl}-N^2-{[(1S)-1,3-dicarboxypropyl]carbamoyl}-L-lysine] | 88% | 82%
4 | CNc1cc(C[C@@H](NC(=O)[C@H]2CC[C@H](CN)CC2)C(=O)NCCCC[C@H](NC(=O)N[C@@H](CCC(=O)O)C(=O)O)C(=O)O)cc2ccccc12 [Example 37-A, (3R,10S,14S)-1-[(1r,4S)-4-(aminomethyl)cyclohexyl]-3-{[4-(methylamino)naphthalen-2-yl]methyl}-1,4,12-trioxo-2,5,11,13-tetraazahexadecane-10,14,16-tricarboxylic acid] | 145% | 75%
5 | NC[C@H]1CC[C@H](C(=O)N[C@@H](CCCc2ccccc2)C(=O)NCCCC[C@H](NC(=O)N[C@@H](CCC(=O)O)C(=O)O)C(=O)O)CC1 [Example 3-A, N^6—{N-[(1r,4S)-4-(aminomethyl)cyclohexane-1-carbonyl]-5-phenyl-L-norvalyl}-N^2-{[(1S)-1,3-dicarboxypropyl]carbamoyl}-L-lysine] | 100% | 88%
6 | NC1CC2(C1)CC(C(=O)N[C@@H](Cc1ccc3ccccc3c1)C(=O)NCCCC[C@H](NC(=O)N[C@@H](CCC(=O)O)C(=O)O)C(=O)O)C2 (stereo partly drawn) [Example 47-A, (3S,10S,14S)-1-(6-aminospiro[3.3]heptan-2-yl)-3-[(naphthalen-2-yl)methyl]-1,4,12-trioxo-2,5,11,13-tetraazahexadecane-10,14,16-tricarboxylic acid] | 94% | 43%
7 | COc1c(C[C@@H](NC(=O)c2ccc(CNC(=O)CN3CCN(CC(=O)O)CCN(CC(=O)O)CCN(CC(=O)O)CC3)cn2)C(=O)NCCCC[C@H](NC(=O)N[C@@H](CCC(=O)O)C(=O)O)C(=O)O)ccc2ccccc12 [Example 33a-B, (3R,10S,14S)-3-[(1-methoxynaphthalen-2-yl)methyl]-1,4,12-trioxo-1-[5-({2-[4,7,10-tris(carboxymethyl)-1,4,7,10-tetraazacyclododecan-1-yl]acetamido}methyl)pyridin-2-yl]-2,5,11,13-tetraazahexadecane-10,14,16-tricarboxylic acid] | 74% | 42%
8 | CNCC[C@H]1CC[C@H](C(=O)N[C@H](Cc2cc(OC)c3ccccc3c2)C(=O)NCCCC[C@H](NC(=O)N[C@@H](CCC(=O)O)C(=O)O)C(=O)O)CC1 [Example 35-A, (3R,10S,14S)-3-[(4-methoxynaphthalen-2-yl)methyl]-1-{(1r,4S)-4-[2-(methylamino)ethyl]cyclohexyl}-1,4,12-trioxo-2,5,11,13-tetraazahexadecane-10,14,16-tricarboxylic acid] | 113% | 60%
9 | Cc1cc(C(=O)NCCN(CCCN(CCNC(=O)c2cc(C)n(CC(=O)O)c(=O)c2O)CCNC(=O)c2cc(C)n(CC(=O)NCc3ccc(C(=O)N[C@@H](Cc4ccc5ccccc5n4)C(=O)NCCCC[C@H](NC(=O)N[C@@H](CCC(=O)O)C(=O)O)C(=O)O)nc3)c(=O)c2O)CCNC(=O)c2cc(C)n(CC(=O)NCc3ccc(C(=O)NC(Cc4ccc5ccccc5n4)C(=O)NCCCC[C@H](NC(=O)N[C@@H](CCC(=O)O)C(=O)O)C(=O)O)nc3)c(=O)c2O)c(O)c(=O)n1CC(=O)O (stereo partly drawn) [34-C dimer, (3S,10S,14S,3'S,10'S,14'S)-1,1′-(propane-1,3-diylbis{[(2-{[1-(carboxymethyl)-3-hydroxy-6-methyl-2-oxo-1,2-dihydropyridine-4-carbonyl]amino}ethyl)azanediyl]ethane-2,1-diylcarbamoyl(3-hydroxy-6-methyl-2-oxopyridine-4,1(2H)-diyl)(1-oxoethane-2,1-diyl)azanediylmethylenepyridine-5,2-diyl})bis{1,4,12-trioxo-3-[(quinolin-2-yl)methyl]-2,5,11,13-tetraazahexadecane-10,14,16-tricarboxylic acid}] | 42% | 7%
10 | NC[C@H]1CC[C@H](C(=O)N[C@@H](Cc2cccc(F)c2)C(=O)NCCCC[C@H](NC(=O)N[C@@H](CCC(=O)O)C(=O)O)C(=O)O)CC1 [Example 10-A, N^6—{N-[(1r,4S)-4-(aminomethyl)cyclohexane-1-carbonyl]-3-fluoro-L-phenylalanyl}-N^2-{[(1S)-1,3-dicarboxypropyl]carbamoyl}-L-lysine] | 91% | 60%
11 | NC[C@H]1CC[C@H](C(=O)NC(Cc2ccc3ccccc3c2)C(=O)NCCCC[C@H](NC(=O)N[C@@H](CCC(=O)O)C(=O)O)C(=O)O)CC1 (stereo partly drawn) [Example 1-A, (3S,10S,14S)-1-[(1r,4S)-4-(aminomethyl)cyclohexyl]-3-[(naphthalen-2-yl)methyl]-1,4,12-trioxo-2,5,11,13-tetraazahexadecane-10,14,16-tricarboxylic acid] | 90% | 45%
12 | NCc1ccc(C(=O)N[C@@H](Cc2ccc3ncccc3c2)C(=O)NCCCC[C@H](NC(=O)N[C@@H](CCC(=O)O)C(=O)O)C(=O)O)nc1 [Example 49-A, (3S,10S,14S)-1-[5-(aminomethyl)pyridin-2-yl]-1,4,12-trioxo-3-[(quinolin-6-yl)methyl]-2,5,11,13-tetraazahexadecane-10,14,16-tricarboxylic acid] | 65% | 44%
13 | NC[C@H]1CC[C@H](C(=O)N[C@@H](CCCCNC(N)=O)C(=O)NCCCC[C@H](NC(=O)N[C@@H](CCC(=O)O)C(=O)O)C(=O)O)CC1 [Example 5-A, N^6—{N^2-[(1r,4S)-4-(aminomethyl)cyclohexane-1-carbonyl]-N^6-carbamoyl-L-lysyl}-N^2-{[(1S)-1,3-dicarboxypropyl]carbamoyl}-L-lysine] | 109% | 112%

Source: patent US20230072421A1, “TARGETED RADIOPHARMACEUTICALS FOR THE DIAGNOSIS AND TREATMENT OF PROSTATE CANCER” (Bayer AS, priority 2019, published 2023)
